Patent US8173645B2 (Takeda San Diego, Inc., priority 2007, dated 2012)

Target: T1, glucokinase (GK), residues 12-465 of the human enzyme (Homo sapiens, UniProt P35557)
T1 construct: I.D. No. 1 corresponds to residues 12-465 of glucokinase; made in house; host or cells: E. coli DH10b-Tlr
T1 sequence (P35557 with tags, fused parts or gaps isoform P35557-2): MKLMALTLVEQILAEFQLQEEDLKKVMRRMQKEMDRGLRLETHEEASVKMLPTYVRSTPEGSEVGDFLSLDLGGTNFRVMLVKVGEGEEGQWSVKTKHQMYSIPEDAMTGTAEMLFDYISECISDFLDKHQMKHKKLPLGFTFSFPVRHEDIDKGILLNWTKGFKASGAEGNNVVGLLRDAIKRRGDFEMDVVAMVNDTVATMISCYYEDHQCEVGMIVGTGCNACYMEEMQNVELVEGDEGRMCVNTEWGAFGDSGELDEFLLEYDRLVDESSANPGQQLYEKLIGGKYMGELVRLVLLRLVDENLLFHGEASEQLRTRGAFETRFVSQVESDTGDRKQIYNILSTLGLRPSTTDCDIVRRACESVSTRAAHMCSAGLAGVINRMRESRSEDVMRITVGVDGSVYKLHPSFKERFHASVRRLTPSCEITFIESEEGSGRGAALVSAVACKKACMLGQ
Test: Enzymatic glucokinase activity assay (KinaseGlo luminescence, ATP consumption)
Type: biochemical
Settings: 5 μM ATP, 5 mM Glucose; for EC50: GK activation, Kact = concentration giving 50% of the maximal increase in GK activity, read-out: pKact; for Emax: calculated maximal gain in GK enzyme activity at a saturating concentration of the compound, read-out: % ACTmax
Excerpt: The activity of compounds as glucokinase activators may be assayed in vitro, in vivo or in a cell line. Provided below is an enzymatic glucokinase activity assay.
Purified glucokinase may be obtained as follows. DNA encoding residues 12-465 of the full-length sequence of the human enzyme may be amplified by PCR and cloned into the HindIII and EcoRI sites of pFLAG-CTC (Sigma). SEQ. I.D. No. 1 corresponds to residues 12-465 of glucokinase.
The expression of recombinant glucokinase protein may be carried out by transformation and growth of DH10b-Tlr E. coli cells incorporating the (pFLAG-CTC) plasmid in LB media. Protein expression can be induced in this system by the addition of IPTG to the culture medium.
Recombinant protein may be isolated from cellular extracts by passage over Sepharose Q Fast Flow resin (Pharmacia). This partially purified GK extract may then be further purified by a second passage over Poros HQ 10 (Applied Biosystems). The purity of GK may be determined on denaturing SDS-PAGE gel. Purified GK may then be concentrated to a final concentration of 20.0 mg/ml. After flash freezing in liquid nitrogen, the proteins can be stored at −78° C. in a buffer containing 25 mM TRIS-HCl pH 7.6, 50 mM NaCl, and 0.5 mM TCEP.
The activation properties of compounds for GK may be determined using a black 384-well-plate format under the following reaction conditions: 25 mM Hepes pH 7.2, 25 mM NaCl, 10 mM MgCl2, 0.01% Brij35, 1 mM DTT, 5 μM ATP, 5 mM Glucose 2% DMSO. The amount of ATP consumed may be determined quantitatively by addition of equal volume of luciferase reagent (luciferase+beetle luciferin—KinaseGlo Luminescent Kinase Assay kit from Promega). The luminescence intensity may be measured by using the Analyst HT from LJL Biosystems.
The assay reaction may be initiated as follows: 4 μl of substrate mixture (12.5 μM ATP and 12.5 mM Glucose) was added to each well of the plate, followed by the addition of 2 μl of activator (2 fold serial dilutions for 11 data points for each activator) containing 10% DMSO. 4 μL of 1.25 nM GK solution may be added to initiate the reaction. The reaction mixture may then be incubated at room temperature for 60 min, and quenched and developed by addition of 10 μL of luciferase reagent. Luminescence intensities of the resulting reaction mixtures may be measured after a 10 min incubation at room temperature. The luminescence intensity may be measured by using the Analyst HT from LJL Biosystems.
pKact and % ACTmax values may be calculated by non-linear curve fitting of the compound concentrations and luminescence intensities to a standard inhibition/activation equation.

EC50 [µM] | Emax [%] | SMILES
≤ 0.631 | ≤ 74 | CC(C)Oc1ccc(S(=O)(=O)N2CCN([C@@H](CC3CCCCC3)C(=O)Nc3nccs3)C(=O)C2)cc1 [Example 101, (S)-3-cyclohexyl-2-(4-(4-isopropoxyphenylsulfonyl)-2-oxopiperazin-1-yl)-N-(thiazol-2-yl)propanamide]
0.794 to 1.26 | 108 to 119 | O=C(Nc1nccs1)[C@H](CC1CCCCC1)N1CCN(S(=O)(=O)c2cc(Cl)ccc2Cl)CC1=O [Example 56, (S)-3-cyclohexyl-2-(4-(2,5-dichlorophenylsulfonyl)-2-oxopiperazin-1-yl)-N-(thiazol-2-yl)propanamide]
≥ 3.16 | 108 to 119 | O=C(Nc1nccs1)[C@H](CC1CCCCC1)N1CCN(S(=O)(=O)c2c(Cl)nc3sccn23)CC1=O [Example 164, (S)-2-(4-(6-chloroimidazo[2,1-b]thiazol-5-ylsulfonyl)-2-oxopiperazin-1-yl)-3-cyclohexyl-N-(thiazol-2-yl)propanamide]
0.794 to 1.26 | 97.1 to 107 | COC(=O)c1cc(S(=O)(=O)N2CCN([C@@H](CC3CCCCC3)C(=O)Nc3nccs3)C(=O)C2)oc1C [Example 159, (S)-methyl 5-(4-(3-cyclohexyl-1-oxo-1-(thiazol-2-ylamino)propan-2-yl)-3-oxopiperazin-1-ylsulfonyl)-2-methylfuran-3-carboxylate]
1.58 to 2.51 | ≥ 119 | CC(C)S(=O)(=O)N1CCN([C@@H](CC2CCCCC2)C(=O)Nc2nccs2)C(=O)C1 [Example 59, (S)-3-cyclohexyl-2-(4-(isopropylsulfonyl)-2-oxopiperazin-1-yl)-N-(thiazol-2-yl)propanamide]
≥ 3.16 | 74.1 to 97 | O=C(Nc1nccs1)[C@H](CC1CCCCC1)N1CCN(C(=O)Nc2cccc(C(F)(F)F)c2)CC1=O [Example 141, (S)-4-(3-cyclohexyl-1-oxo-1-(thiazol-2-ylamino)propan-2-yl)-3-oxo-N-(3-(trifluoromethyl)phenyl)piperazine-1-carboxamide]
0.794 to 1.26 | 97.1 to 107 | O=C(Nc1nccs1)[C@H](CC1CCCCC1)N1CCN(C(=S)NC2CCCC2)CC1=O [Example 128, (S)-3-cyclohexyl-2-(4-(cyclopentylcarbamothioyl)-2-oxopiperazin-1-yl)-N-(thiazol-2-yl)propanamide]
0.794 to 1.26 | 74.1 to 97 | O=C(Nc1nccs1)[C@H](CC1CCCCC1)N1CCN(S(=O)(=O)c2ccc(Cl)cc2)CC1=O [Example 43, (S)-2-(4-(4-chlorophenylsulfonyl)-2-oxopiperazin-1-yl)-3-cyclohexyl-N-(thiazol-2-yl)propanamide]
0.794 to 1.26 | 108 to 119 | COc1ccc2nc(NC(=O)C(CC3CCOCC3)N3CCN(S(=O)(=O)C4CCCC4)CC3=O)sc2n1 (centres unmarked) [Example 29, 2-(4-(cyclopentylsulfonyl)-2-oxopiperazin-1-yl)-N-(5-methoxythiazolo[5,4-b]pyridin-2-yl)-3-(tetrahydro-2H-pyran-4-yl)propanamide]
≥ 3.16 | ≥ 119 | Cc1nc(C)c(S(=O)(=O)N2CCN([C@@H](CC3CCCCC3)C(=O)Nc3nccs3)C(=O)C2)s1 [Example 54, (S)-3-cyclohexyl-2-(4-(2,4-dimethylthiazol-5-ylsulfonyl)-2-oxopiperazin-1-yl)-N-(thiazol-2-yl)propanamide]
1.58 to 2.51 | 74.1 to 97 | COc1ccc(CNC(=S)N2CCN([C@@H](CC3CCCCC3)C(=O)Nc3nccs3)C(=O)C2)cc1 [Example 122, (S)-3-cyclohexyl-2-(4-(4-methoxybenzylcarbamothioyl)-2-oxopiperazin-1-yl)-N-(thiazol-2-yl)propanamide]
1.58 to 2.51 | 108 to 119 | NS(=O)(=O)c1ccc(NC(=S)N2CCN([C@@H](CC3CCCCC3)C(=O)Nc3nccs3)C(=O)C2)cc1 [Example 134, (S)-3-cyclohexyl-2-(2-oxo-4-(4-sulfamoylphenylcarbamothioyl)piperazin-1-yl)-N-(thiazol-2-yl)propanamide]
0.794 to 1.26 | 74.1 to 97 | O=C(Nc1nccs1)[C@H](CC1CCCCC1)N1CCN(S(=O)(=O)c2ccc3c(c2)OCCO3)CC1=O [Example 53, (S)-3-cyclohexyl-2-(4-(2,3-dihydrobenzo[b][1,4]dioxin-6-ylsulfonyl)-2-oxopiperazin-1-yl)-N-(thiazol-2-yl)propanamide]
1.58 to 2.51 | 74.1 to 97 | N#Cc1cc(S(=O)(=O)N2CCN([C@@H](CC3CCCCC3)C(=O)Nc3nccs3)C(=O)C2)ccc1F [Example 230, (S)-2-(4-(3-cyano-4-fluorophenylsulfonyl)-2-oxopiperazin-1-yl)-3-cyclohexyl-N-(thiazol-2-yl)propanamide]
0.794 to 1.26 | 74.1 to 97 | O=C(Nc1nccs1)[C@H](CC1CCCCC1)N1CCN(S(=O)(=O)c2ccc3c(c2)CCO3)CC1=O [Example 102, (S)-3-cyclohexyl-2-(4-(2,3-dihydrobenzofuran-5-ylsulfonyl)-2-oxopiperazin-1-yl)-N-(thiazol-2-yl)propanamide]
≤ 0.631 | ≤ 74 | Cn1nc(C(F)(F)F)cc1-c1ccc(S(=O)(=O)N2CCN([C@@H](CC3CCCCC3)C(=O)Nc3nccs3)C(=O)C2)s1 [Example 193, (S)-3-cyclohexyl-2-(4-(5-(1-methyl-3-(trifluoromethyl)-1H-pyrazol-5-yl)thiophen-2-ylsulfonyl)-2-oxopiperazin-1-yl)-N-(thiazol-2-yl)propanamide]
≥ 3.16 | 74.1 to 97 | O=C(O)c1cccc(S(=O)(=O)N2CCN([C@@H](CC3CCCCC3)C(=O)Nc3nccs3)C(=O)C2)c1 [Example 49, (S)-3-(4-(3-cyclohexyl-1-oxo-1-(thiazol-2-ylamino)propan-2-yl)-3-oxopiperazin-1-ylsulfonyl)benzoic acid]
≥ 3.16 | 97.1 to 107 | NC(=O)Nc1ccc(S(=O)(=O)N2CCN([C@@H](CC3CCCCC3)C(=O)Nc3nccs3)C(=O)C2)cc1 [Example 64, (S)-3-cyclohexyl-2-(2-oxo-4-(4-ureidophenylsulfonyl)piperazin-1-yl)-N-(thiazol2-yl)propanamide]
0.794 to 1.26 | ≥ 119 | CC(C)C[C@@H](C(=O)Nc1ncc(Cl)s1)N1CCN(S(=O)(=O)C2CC2)CC1=O [Example 10, (S)—N-(5-chlorothiazol-2-yl)-2-(4-(cyclopropylsulfonyl)-2-oxopiperazin-1-yl)-4-methylpentanamide]
≤ 0.631 | 97.1 to 107 | O=C(Nc1nccs1)[C@H](CC1CCCCC1)N1CCN(S(=O)(=O)c2ccc(Cl)s2)CC1=O [Example 172, (S)-2-(4-(5-chlorothiophen-2-ylsulfonyl)-2-oxopiperazin-1-yl)-3-cyclohexyl-N-(thiazol-2-yl)propanamide]
≥ 3.16 | 74.1 to 97 | Cc1noc(C)c1S(=O)(=O)N1CCN([C@@H](CC2CCCCC2)C(=O)Nc2nccs2)C(=O)C1 [Example 173, (S)-3-cyclohexyl-2-(4-(3,5-dimethylisoxazol-4-ylsulfonyl)-2-oxopiperazin-1-yl)-N-(thiazol-2-yl)propanamide]
0.794 to 1.26 | 108 to 119 | N#Cc1cccc(S(=O)(=O)N2CCN([C@@H](CC3CCCCC3)C(=O)Nc3nccs3)C(=O)C2)c1 [Example 62, (S)-2-(4-(3-cyanophenylsulfonyl)-2-oxopiperazin-1-yl)-3-cyclohexyl-N-(thiazol-2-yl)propanamide]
